Experimental data: patent publication US20130310384A1, “Sulfonamide-Containing Compounds” (THE BRIGHAM AND WOMEN'S HOSPITAL, INC., priority 2010, published 2013)

CCC(c1ccc(Cl)nc1)N(Cc1ccc(C(=O)O)cc1)S(=O)(=O)c1ccc(Cl)cc1 (stereo not drawn) [Example 89, 4-((4-Chloro-N-(1-(6-chloropyridin-3-yl)propyl)phenylsulfonamido)methyl)benzoic acid]
melting point: 111 to 113 °C

COC(=O)c1ccc(CN(C(C)C)S(=O)(=O)c2ccc(F)cc2)cc1 [Example 45, Methyl 4-((4-fluoro-N-isopropylphenylsulfonamido)methyl)benzoate]
melting point: 118 to 120 °C

CCC(CC)N(Cc1ccc(C#N)cc1)S(=O)(=O)c1ccc(Cl)cc1 [Example 33, 4-Chloro-N-(4-cyanobenzyl)-N-(pentan-3-yl)benzenesulfonamide]
melting point: 123 to 125 °C

CCC(CC)N(Cc1ccc(S(C)(=O)=O)cc1)S(=O)(=O)c1ccc(Cl)cc1 [Example 31, 4-Chloro-N-(4-(methylsulfonyl)benzyl)-N-(pentan-3-yl)benzenesulfonamide]
melting point: 166 to 168 °C

CC[C@@H](c1ccccc1)N(Cc1ccc(C(=O)OC)cc1)S(=O)(=O)c1ccc(F)c(F)c1 [Example 115, (S)-Methyl 4-((3,4-difluoro-N-(1-phenylpropyl)phenylsulfonamido)methyl)benzoate]
melting point: 103 to 105 °C

CCC(CC)N(Cc1ccc(C(=O)OC)cc1)S(=O)(=O)c1ccc(Cl)cc1 [Example 40, Methyl 4-((4-chloro-N-(pentan-3-yl)phenylsulfonamido)methyl)benzoate]
melting point: 95 to 97 °C

CC[C@@H](c1ccccc1)N(Cc1ccc(C(=O)NC[C@H](C)O)cc1)S(=O)(=O)c1ccc(Cl)cc1 [Example 80, 4-((4-Chloro-N—((S)-1-phenylpropyl)phenylsulfonamido)methyl)-N-((S)-2-hydroxypropyl)benzamide]
melting point: 78 to 80 °C

C[C@H](O)[C@H](CO)N(Cc1ccc(C#N)cc1)S(=O)(=O)c1ccc(Cl)cc1 [Example 132, 4-Chloro-N-(4-cyanobenzyl)-N-((2S,3S)-1,3-dihydroxybutan-2-yl)-benzene-sulfonamide]
melting point: 124 to 126 °C

COC(=O)c1ccc(CN(C(CO)CO)S(=O)(=O)c2ccc(Cl)s2)cc1 [Example 42, Methyl 4-((5-chloro-N-(1,3-dihydroxypropan-2-yl)thiophene-2-sulfonamido)methyl)benzoate]
melting point: 134 to 135 °C

CCC(c1ccc(F)cc1)N(Cc1ccc(C(=O)OC)cc1)S(=O)(=O)c1ccc(Cl)cc1 (stereo not drawn) [Example 30, Methyl 4-((4-chloro-N-(1-(4-fluorophenyl)propyl)phenylsulfonamido)methyl)benzoate]
melting point: 95 to 97 °C

CC[C@@H](c1ccc(C(F)(F)F)cc1)N(Cc1ccc(C(=O)OC)cc1)S(=O)(=O)c1ccc(Cl)cc1 [Example 122, (S)-Methyl 4-((4-chloro-N-(1-(4-(trifluoromethyl)phenyl)propyl)phenylsulfonamido)methyl)benzoate]
melting point: 123 to 125 °C

CCC(CC)N(Cc1ccc(C#N)cc1F)S(=O)(=O)c1ccc(F)cc1 [Example 36, N-(4-Cyano-2-fluorobenzyl)-4-fluoro-N-(pentan-3-yl)benzenesulfonamide]
melting point: 102 to 104 °C

COC(=O)c1ccc(CN(C(CF)CF)S(=O)(=O)c2ccc(F)cc2)cc1 [Example 41]
melting point: 103 to 105 °C

C[C@H](O)[C@H](CO)N(Cc1ccc(C#N)cc1F)S(=O)(=O)c1ccc(Cl)cc1 [Example 131, 4-Chloro-N-(4-cyano-2-fluorobenzyl)-N-((2S,3S)-1,3-dihydroxybutan-2-yl)-benzenesulfonamide]
melting point: 112 to 114 °C

CCC(c1ccc(C(F)(F)F)cc1)N(Cc1ccc(C(=O)O)cc1)S(=O)(=O)c1ccc(Cl)cc1 (stereo not drawn) [Example 54, 4-((4-Chloro-N-(1-(4-(trifluoromethyl)phenyl)propyl)phenylsulfonamido)methyl)benzoic acid]
melting point: 108 to 110 °C

CC(C)N(Cc1ccc(Cl)c(Cl)c1)S(=O)(=O)c1cc2ccccc2s1 [Example 48, N-(3,4-Dichlorobenzyl)-N-isopropylbenzo[b]thiophene-2-sulfonamide]
melting point: 133 to 135 °C

C[C@@H](c1ccc(Cl)cc1)N(Cc1ccc(C(=O)O)cc1)S(=O)(=O)c1ccc(Cl)cc1 [Example 141, (S)-4-((4-Chloro-N-(1-(4-chlorophenyl)ethyl)phenylsulfonamido)methyl)benzoic acid]
melting point: 163 to 165 °C

COC(=O)c1ccc(CN([C@@H](CO)Cc2ccccc2)S(=O)(=O)c2ccc(Cl)cc2)cc1 [Example 94, (R)-Methyl 4-((4-chloro-N-(1-hydroxy-3-phenylpropan-2-yl)phenylsulfonamido)-methyl)benzoate]
melting point: 128 to 130 °C

COC(=O)c1ccc(CN([C@@H](CO)c2ccccc2)S(=O)(=O)c2ccc(Cl)cc2)cc1 [Example 7, (R)-Methyl 4-((4-chloro-N-(2-hydroxy-1-phenylethyl)phenylsulfonamido)methyl)benzoate]
melting point: 104 to 106 °C

CCC(CC)N(Cc1ccc(C(=O)O)cn1)S(=O)(=O)c1ccc(F)cc1 [Example 37, 6-((4-Fluoro-N-(pentan-3-yl)phenylsulfonamido)methyl)nicotinic acid]
melting point: 145 to 147 °C

COC(=O)c1cc(CN([C@@H](CO)c2ccccc2)S(=O)(=O)c2ccc(Cl)cc2)ccc1OC [Example 133, (R)-Methyl 5-((4-chloro-N-(2-hydroxy-1-phenylethyl)phenylsulfonamido)methyl)-2-methoxybenzoate]
melting point: 60 to 62 °C

CCC(CC)N(Cc1ccc(C#N)nc1)S(=O)(=O)c1ccc(F)cc1 [Example 73, N-((6-Cyanopyridin-3-yl)methyl)-4-fluoro-N-(pentan-3-yl)benzenesulfonamide]
melting point: 118 to 120 °C

CCC(c1ccccc1)N(Cc1ccc(C(=O)OC)cc1)S(=O)(=O)c1ccc(Cl)cc1 (stereo not drawn) [Example 25, Methyl 4-((4-chloro-N-(1-phenylpropyl)phenylsulfonamido)methyl)benzoate]
melting point: 105 to 107 °C

CC[C@@H](c1ccccc1)N(Cc1cccc(C(=O)O)c1)S(=O)(=O)c1ccc(Cl)cc1 [Example 59, (S)-3-((4-Chloro-N-(1-phenylpropyl)phenylsulfonamido)methyl)benzoic acid]
melting point: 65 to 67 °C

CC[C@@H](c1ccccc1)N(Cc1ccc(C(=O)OC)cc1)S(=O)(=O)c1ccc(C(F)(F)F)cc1 [Example 18, (S)-Methyl 4-((N-(1-phenylpropyl)-4-(trifluoromethyl)phenylsulfonamido)methyl)benzoate]
melting point: 70 to 72 °C

CC(C)N(Cc1ccc(Cl)c(Cl)c1)S(=O)(=O)c1ccc(Cl)s1 [Example 43, 5-Chloro-N-(3,4-dichlorobenzyl)-N-isopropylthiophene-2-sulfonamide]
melting point: 66 to 67 °C

CC[C@@H](c1ccccc1)N(Cc1ccc(C(=O)NCC(=O)O)cc1)S(=O)(=O)c1ccc(Cl)cc1 [Example 64, (S)-2-(4-((4-Chloro-N-(1-phenylpropyl)phenylsulfonamido)methyl)benzamido)acetic acid]
melting point: 136 to 139 °C

CC[C@@H](c1ccccc1)N(Cc1ccc(C(=O)OC)cc1)S(=O)(=O)c1ccc(Cl)cc1 [Example 3, (S)-Methyl 4-((4-chloro-N-(1-phenylpropyl)phenylsulfonamido)methyl)benzoate]
melting point: 108 to 110 °C

CC[C@@H](c1ccccc1)N(Cc1ccc(C(=O)N2CCC[C@@H]2CO)cc1)S(=O)(=O)c1ccc(Cl)cc1 [Example 104, 4-Chloro-N-(4-((R)-2-(hydroxymethyl)pyrrolidine-1-carbonyl)benzyl)-N-((S)-1-phenylpropyl)benzenesulfonamide]
melting point: 120 to 121 °C

CC[C@@H](c1ccc(C#N)cc1)N(Cc1ccc(C#N)cc1)S(=O)(=O)c1ccc(Cl)cc1 [Example 84, (S)-4-Chloro-N-(4-cyanobenzyl)-N-(1-(4-cyanophenyl)propyl)benzenesulfonamide]
melting point: 120 to 121 °C

CCC(CC)N(Cc1ccc(C(=O)OC)cc1)S(=O)(=O)c1ccc(F)cc1 [Example 32, Methyl 4-((4-fluoro-N-(pentan-3-yl)phenylsulfonamido)methyl)benzoate]
melting point: 78 to 80 °C

CCC(c1ccccn1)N(Cc1ccc(C(=O)OC)cc1)S(=O)(=O)c1ccc(F)cc1 (stereo not drawn) [Example 26, Methyl 4-((4-fluoro-N-(1-(pyridin-2-yl)propyl)phenylsulfonamido)methyl)benzoate]
melting point: 82 to 84 °C

CC[C@@H](c1ccccc1)N(Cc1ccc(C(=O)OC)c(F)c1F)S(=O)(=O)c1ccc(Cl)cc1 [Example 124, (S)-Methyl 4-((4-chloro-N-(1-phenylpropyl)phenylsulfonamido)methyl)-2,3-difluorobenzoate]
melting point: 87 to 89 °C

CC[C@@H](c1ccccc1)N(Cc1ccc(C(=O)OC)cc1)S(=O)(=O)c1ccc(Cl)c(Cl)c1 [Example 114, (S)-Methyl 4-((3,4-dichloro-N-(1-phenylpropyl)phenylsulfonamido)methyl)benzoate]
melting point: 98 to 99 °C

O=C(O)c1ccc(CN(C(CO)CO)S(=O)(=O)c2ccc(Cl)s2)cc1 [Example 53, 4-((5-Chloro-N-(1,3-dihydroxypropan-2-yl)thiophene-2-sulfonamido)methyl)benzoic acid]
melting point: 163 to 165 °C

CC[C@@H](c1ccccc1)N(Cc1ccc(C(=O)OC)cc1)S(=O)(=O)c1ccc(F)cc1 [Example 21, (S)-Methyl 4-((4-fluoro-N-(1-phenylpropyl)phenylsulfonamido)methyl)benzoate]
melting point: 107 to 109 °C

CCC(CC)N(Cc1ccc(C#N)nc1)S(=O)(=O)c1ccc(Cl)cc1 [Example 72]
melting point: 108 to 110 °C

CC[C@@H](c1ccccc1)N(Cc1ccc(C(=O)O)cc1OC)S(=O)(=O)c1ccc(Cl)cc1 [Example 23, (S)-4-((4-Chloro-N-(1-phenylpropyl)phenylsulfonamido)methyl)-3-methoxybenzoic acid]
melting point: 176 to 178 °C

CCC(CC)N(Cc1ccc(C(=O)OC)cc1)S(=O)(=O)c1ccc(C)cc1 [Example 35, Methyl 4-((4-methyl-N-(pentan-3-yl)phenylsulfonamido)methyl)benzoate]
melting point: 106 to 108 °C
